Data on 4 compounds can be found in BindingDB's records for patent US20240352046 (1Cbio, 2024).

The structures appear in SMILES notation.

This assay concerns the target T1, Ectonucleotide pyrophosphatase/phosphodiesterase family member 1 (Homo sapiens, UniProt P22413).
T1 sequence (P22413 whole entry): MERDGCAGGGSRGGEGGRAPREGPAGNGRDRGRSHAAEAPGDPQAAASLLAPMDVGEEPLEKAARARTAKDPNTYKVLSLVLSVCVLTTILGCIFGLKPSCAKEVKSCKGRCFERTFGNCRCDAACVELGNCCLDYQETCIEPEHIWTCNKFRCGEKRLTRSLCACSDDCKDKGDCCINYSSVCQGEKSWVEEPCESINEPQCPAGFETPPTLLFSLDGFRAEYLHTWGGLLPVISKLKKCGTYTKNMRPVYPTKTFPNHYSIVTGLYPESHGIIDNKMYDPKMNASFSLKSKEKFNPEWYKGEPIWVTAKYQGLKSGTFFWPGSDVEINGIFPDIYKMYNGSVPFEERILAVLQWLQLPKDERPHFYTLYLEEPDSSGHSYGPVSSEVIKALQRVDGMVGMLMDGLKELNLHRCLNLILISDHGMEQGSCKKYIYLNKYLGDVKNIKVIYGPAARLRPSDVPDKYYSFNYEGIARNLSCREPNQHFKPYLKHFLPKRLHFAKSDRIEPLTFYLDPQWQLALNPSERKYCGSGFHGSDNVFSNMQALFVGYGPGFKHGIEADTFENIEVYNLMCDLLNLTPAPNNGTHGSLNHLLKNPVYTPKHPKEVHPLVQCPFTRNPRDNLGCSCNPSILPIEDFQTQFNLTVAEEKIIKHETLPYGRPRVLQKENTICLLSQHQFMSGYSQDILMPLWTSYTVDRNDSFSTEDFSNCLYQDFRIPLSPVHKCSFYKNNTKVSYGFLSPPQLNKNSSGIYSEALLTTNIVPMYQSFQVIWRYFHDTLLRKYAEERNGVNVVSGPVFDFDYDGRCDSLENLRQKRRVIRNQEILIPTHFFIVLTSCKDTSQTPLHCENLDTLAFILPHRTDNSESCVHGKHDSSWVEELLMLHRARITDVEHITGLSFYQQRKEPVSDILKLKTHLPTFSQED
Kind of assay: ENPP1 Inhibition Assay. As for the experimental part:
Dose response curve for the compounds were prepared in duplicates with starting conc. at 5 μM and a three-fold titration was performed. The reaction buffer consisted of 50 mM Tris (pH 8.0), 0.5 mM CaCl2), 1 μM ZnCl2, 250 mM NaCl and 0.1 mg/ml BSA. […] The reaction was then stopped by heating at 90° C. for 3 minutes. […] Following 60 min incubation, 20 μL of detection mixture was added to the enzyme reaction bringing the final volume to 40 μL. The reaction was further incubated for 60 min at RT after which the plates were read using BioTek Plate reader.

As usually defined, the IC50 is the concentration that gives 50% inhibition.

In the case of `COc1cc2nc(C(F)F)nc(N3CC(CCNS(N)(=O)=O)C3)c2cc1OC` [US20240352046, Compound 1.43], half-maximal inhibition (IC50) required 892 nM.

`COc1cc2ncnc(N3CC(CCN(C)S(N)(=O)=O)C3)c2cc1OC` [US20240352046, Compound 1.47] displayed an IC50 of 855 nM.

`COc1ccc2c(N3CC(CCNS(N)(=O)=O)C3)nc(C3CC3)nc2c1` [US20240352046, Compound 1.42]: the IC50 was above 3000 nM.

`COc1ccc2c(N3CC(CCN(C)S(N)(=O)=O)C3)ncnc2c1` [US20240352046, Compound 1.40] gave an IC50 of 793 nM.
